The source of these data is patent US12459974B2, “Bicyclic peptide ligands specific for Nectin-4” (priority 2018, dated 2025).

*1 amine or outer side, *2 acyl side, *3 side chain or, on linkers, in order; H or OH if unused. Where a SMILES comes first, the peptide text is derived from it. Bridges are numbered along the chain shown (N, C = ends). [ ]: non-standard residue; d: D form. TATA = O=C(CC[*:1])N1CN(C(=O)CC[*:2])CN(C(=O)CC[*:3])C1; 1Nal = N[C@@H](Cc1cccc2ccccc12)C(=O)O; Hyp = O=C(O)[C@@H]1C[C@@H](O)CN1; hArg = N=C(N)NCCCC[C@H](N)C(=O)O

One experiment deals with T1, human Nectin-4 (Homo sapiens, UniProt Q96NY8).
T1 sequence (Q96NY8 32-510): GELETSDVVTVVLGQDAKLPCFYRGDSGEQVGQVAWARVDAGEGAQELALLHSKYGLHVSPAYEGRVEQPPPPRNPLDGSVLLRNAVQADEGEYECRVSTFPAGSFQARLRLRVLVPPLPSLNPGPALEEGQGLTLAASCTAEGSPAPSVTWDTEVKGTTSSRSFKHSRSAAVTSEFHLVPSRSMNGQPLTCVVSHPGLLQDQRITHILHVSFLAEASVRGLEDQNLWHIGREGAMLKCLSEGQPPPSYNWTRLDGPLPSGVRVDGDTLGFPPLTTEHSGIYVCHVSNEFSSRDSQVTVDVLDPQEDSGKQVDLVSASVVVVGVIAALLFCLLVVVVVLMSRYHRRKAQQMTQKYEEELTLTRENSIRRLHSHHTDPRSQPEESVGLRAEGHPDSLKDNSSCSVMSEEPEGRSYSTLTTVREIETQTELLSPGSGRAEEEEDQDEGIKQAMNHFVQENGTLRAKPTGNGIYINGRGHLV
In words: Nectin-4 competition binding assay (fluorescence polarisation).
Conditions: not given
A digest of the protocol: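 Serially diluted (1 in 2) peptides, max 5% DMSO, were mixed with human Nectin-4 and a fluorescent tracer peptide; FP read as in the direct binding assay. Ki from fitting mP values to a cubic competition equation using tracer concentration, tracer Kd and Nectin-4 concentration.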
For orientation: In fluorescence polarisation assays a small probe gives low polarisation when free and higher when bound to something large.
Usually Ki stands for a measure of affinity in units of concentration, obtained from inhibition or displacement. `CC[C@H](C)[C@@H]1NC(=O)[C@@H]2CCCN2C(=O)[C@H](Cc2c[nH]c3ccccc23)NC(=O)[C@H](CO)NC(=O)[C@H](Cc2c[nH]c3ccccc23)NC(=O)[C@H](CC(=O)O)NC(=O)[C@H](CCCCN)NC(=O)[C@H](CCSC)NC(=O)[C@@H]2CSCCC(=O)N3CN(CN(C3)C(=O)CCSC[C@H](NC(C)=O)C(=O)N3CCC[C@H]3C(=O)N[C@@H](Cc3ccccc3)C(=O)NCC(=O)N2)C(=O)CCSC[C@@H](C(N)=O)NC(=O)[C@H](Cc2c[nH]c3ccccc23)NC1=O` [BCY7661, Ac-(SEQ ID NO: 15)] (Ac-CPFGCMKDWSWPIWC-NH2; linker 1-5-15 via TATA; C-terminus assumed) had a Ki of 29.4 nM. In turn, `CC[C@H](C)[C@@H]1NC(=O)[C@@H]2CCCN2C(=O)[C@H](Cc2c[nH]c3ccccc23)NC(=O)[C@H](CO)NC(=O)[C@H](Cc2c[nH]c3ccccc23)NC(=O)[C@H](CC(N)=O)NC(=O)[C@H](CCCCN)NC(=O)[C@H](CCSC)NC(=O)[C@@H]2CSCCC(=O)N3CN(CN(C3)C(=O)CCSC[C@H](NC(=O)[C@H](C)N)C(=O)N3CCC[C@H]3C(=O)N[C@@H](Cc3ccccc3)C(=O)N[C@@H](C)C(=O)N2)C(=O)CCSC[C@@H](C(=O)N[C@H](C(=O)N[C@@H](CC(N)=O)C(=O)N[C@@H](CCCCN)C(N)=O)[C@@H](C)O)NC(=O)[C@H](Cc2c[nH]c3ccccc23)NC1=O` [BCY7354, A-(SEQ ID NO: 6)-TNK] showed a Ki of 884 nM.

The same experiment, now with this note: competition with fluorescent peptide SEQ ID NO: 217; read-out: Ki.
For the molecule `CC[C@H](C)[C@@H]1NC(=O)[C@@H]2CCCN2C(=O)[C@H]([C@@H](C)O)NC(=O)[C@H](CO)NC(=O)[C@H](Cc2c[nH]c3ccccc23)NC(=O)[C@H](CCCCN)NC(=O)[C@H](CCCCNC(=N)N)NC(=O)[C@H](CCSC)NC(=O)[C@@H]2CSCCC(=O)N3CN(CN(C3)C(=O)CCSC[C@H](NC(C)=O)C(=O)N3CCC[C@H]3C(=O)N[C@@H](Cc3ccccc3)C(=O)N[C@H](CC(=O)O)C(=O)N2)C(=O)CCSC[C@@H](C(N)=O)NC(=O)[C@H](Cc2c[nH]c3ccccc23)NC1=O` [BCY7822, Ac-(SEQ ID NO: 122)], the Ki was determined as 27 nM. The same measure, in the same setting: then `CC[C@H](C)[C@@H]1NC(=O)[C@H](CCCNC(=N)N)NC(=O)[C@H](CC(N)=O)NC(=O)[C@@H]2CSCCC(=O)N3CN(CN(C3)C(=O)CCSC[C@H](NC(=O)[C@H](Cc3c[nH]c4ccccc34)NC(=O)[C@H](C)NC(=O)[C@H](CCC(N)=O)NC(C)=O)C(=O)N[C@@H](C)C(=O)N3CCC[C@H]3C(=O)N[C@@H](CC(C)C)C(=O)N[C@@H](CO)C(=O)N[C@@H](CC(=O)O)C(=O)N[C@@H](Cc3ccc(O)cc3)C(=O)N[C@@H](Cc3c[nH]c4ccccc34)C(=O)N2)C(=O)CCSC[C@@H](C(N)=O)NC1=O` [BCY7623, Ac-QAW-(SEQ ID NO: 34)] (Ac-QAWCAPLSDYWCNRIC-NH2; linker 4-12-16 via TATA; C-terminus assumed), with 21 nM; and `CC[C@H](C)[C@@H]1NC(=O)[C@H](CCCNC(=N)N)NC(=O)CNC(=O)[C@@H]2CSCCC(=O)N3CN(CN(C3)C(=O)CCSC[C@@H](C(=O)N[C@@H](C)C(N)=O)NC1=O)C(=O)CCSC[C@H](NC(=O)[C@H](C)N)C(=O)N[C@@H](Cc1c[nH]c3ccccc13)C(=O)N1CCC[C@H]1C(=O)N[C@@H](CC(C)C)C(=O)N[C@@H](CC(=O)O)C(=O)N1CCC[C@H]1C(=O)N[C@@H](Cc1ccc(O)cc1)C(=O)N[C@@H](Cc1c[nH]c3ccccc13)C(=O)N2` [BCY430, A-(SEQ ID NO: 43)-A] (H-ACWPLDPYWCGRICA-NH2; linker 2-10-14 via TATA; N-terminus and C-terminus assumed), with 310 nM; and `CC[C@H](C)[C@@H]1NC(=O)[C@@H]2CCCN2C(=O)[C@H](Cc2c[nH]c3ccccc23)NC(=O)[C@H](CO)NC(=O)[C@H](Cc2c[nH]c3ccccc23)NC(=O)[C@H](CC(N)=O)NC(=O)[C@H](CCCCN)NC(=O)[C@H](CCSC)NC(=O)[C@@H]2CSCCC(=O)N3CN(CN(C3)C(=O)CCSC[C@H](NC(C)=O)C(=O)NCC(=O)N[C@@H](Cc3ccccc3)C(=O)NCC(=O)N2)C(=O)CCSC[C@@H](C(N)=O)NC(=O)[C@H](Cc2c[nH]c3ccccc23)NC1=O` [BCY7607, Ac-(SEQ ID NO: 94)] (Ac-CGFGCMKNWSWPIWC-NH2; linker 1-5-15 via TATA), with 77 nM.

`CC[C@H](C)[C@@H]1NC(=O)[C@H](CCCNC(=N)N)NC(=O)[C@H](CC(N)=O)NC(=O)[C@@H]2CSCCC(=O)N3CN(CN(C3)C(=O)CCSC[C@H](NC(C)=O)C(=O)N[C@@H](C)C(=O)N3CCC[C@H]3C(=O)N[C@@H](CC(C)C)C(=O)N[C@@H](CO)C(=O)N[C@@H](CC(=O)O)C(=O)N[C@@H](Cc3ccc(O)cc3)C(=O)N[C@@H](Cc3c[nH]c4ccccc34)C(=O)N2)C(=O)CCSC[C@@H](C(N)=O)NC1=O` [BCY8044, Ac-(SEQ ID NO: 34)] (Ac-CAPLSDYWCNRIC-NH2; linker 1-9-13 via TATA; C-terminus assumed): the Ki is 170 nM. Same read-out and setting: the value for `CC[C@H](C)[C@@H]1NC(=O)[C@@H]2CCCN2C(=O)[C@H](CC(=O)O)NC(=O)[C@H](CO)NC(=O)[C@H](Cc2c[nH]c3ccccc23)NC(=O)[C@H](CC(N)=O)NC(=O)[C@H](CCCCN)NC(=O)[C@H](CCSC)NC(=O)[C@@H]2CSCCC(=O)N3CN(CN(C3)C(=O)CCSC[C@H](NC(C)=O)C(=O)N3CCC[C@H]3C(=O)N[C@@H](Cc3ccccc3)C(=O)NCC(=O)N2)C(=O)CCSC[C@@H](C(N)=O)NC(=O)[C@H](Cc2c[nH]c3ccccc23)NC1=O` [BCY7540, Ac-(SEQ ID NO: 8)] (Ac-CPFGCMKNWSDPIWC-NH2; linker 1-5-15 via TATA; C-terminus assumed) was 357 nM; that for `CC[C@H](C)[C@@H]1NC(=O)[C@@H]2CCCN2C(=O)[C@H](Cc2c[nH]c3ccccc23)NC(=O)[C@H](CO)NC(=O)[C@H](Cc2c[nH]c3ccccc23)NC(=O)[C@H](CO)NC(=O)[C@H](CCCCN)NC(=O)[C@H](CCSC)NC(=O)[C@@H]2CSCCC(=O)N3CN(CN(C3)C(=O)CCSC[C@H](NC(=O)[C@H](CO)NC(=O)[C@H](CC(=O)O)NC(=O)[C@@H](N)Cc3c[nH]cn3)C(=O)N3CCC[C@H]3C(=O)N[C@@H](Cc3ccccc3)C(=O)NCC(=O)N2)C(=O)CCSC[C@@H](C(=O)N[C@@H](C)C(N)=O)NC(=O)[C@H](Cc2c[nH]c3ccccc23)NC1=O` [BCY3393, HDS-(SEQ ID NO: 51)-A] (H-HDSCPFGCMKSWSWPIWCA-NH2; linker 4-8-18 via TATA) was 173 nM. As for `CSCC[C@@H]1NC(=O)[C@@H]2CSCCC(=O)N3CN(CN(C3)C(=O)CCSC[C@H](NC(C)=O)C(=O)N3CCC[C@H]3C(=O)N[C@@H](Cc3cccc4ccccc34)C(=O)N[C@H](CCCNC(=N)N)C(=O)N2)C(=O)CCSC[C@@H](C(N)=O)NC(=O)[C@H](Cc2c[nH]c3ccccc23)NC(=O)[C@@H]2C[C@@H](O)CN2C(=O)[C@@H]2CCCN2C(=O)[C@H](CO)NC(=O)[C@H](CO)NC(=O)[C@H](Cc2c[nH]c3ccccc23)NC(=O)[C@H](CC(=O)O)NC(=O)[C@H](CCCCNC(=N)N)NC1=O` [BCY8191, Ac-(SEQ ID NO: 195)] (Ac-CP[1Nal][dR]CM[hArg]DWSSP[Hyp]WC-NH2; linker 1-5-15 via TATA; C-terminus assumed), the inhibition constant Ki came out at 4.5 nM.
